Experimental data from patent US8580751B2, “Esterified α-galactosylceramide” (Riken, priority 2008, dated 2013).

Experiments:
[1] = test system: NKT cells; conditions: cited from earlier work
[2] = test system: human NKT cells; conditions: human system; cited from earlier work
[3] = test system: IL-4; experiment: IL-4 content in serum after intraperitoneal administration of synthetic glycolipid to mouse (Cytometric bead array system); format: in vivo; conditions: 100 μg/kg body weight intraperitoneally, C57BL/6 mice, 12 hr (compounds 23, 24) or 3, 6, 12 hr (compound 33) after administration
Procedure: (§1) A 1 mg/mL dimethyl sulfoxide (DMSO) solution was prepared for each of α-GalCer, compound 23 and compound 24. The solutions were diluted with saline (manufactured by Otsuka Pharmaceutical Co., Ltd.) containing 0.5% Tween 20 (Bio-Rad) such that the dose would be 100 μg/kg body weight when 200 μL was intraperitoneally administered to one mouse.
(§2) Each of the prepared solutions (200 μL) of compounds 23 and 24 was intraperitoneally injected to C57BL/6 mice (2 per group). α-GalCer was used as a control substance, and 200 μL of α-GalCer solution prepared to a dose of 100 μg/kg body weight according to a similar method was injected intraperitoneally. A group administered with a medium (200 μL of saline containing 0.5% Tween 20) was taken as a negative control. The blood (80 μL) was taken from the orbital plexus venosus after the lapse of 6, 12 and 24 hr from the administration, and the serum was prepared.
(§3) The content of IFN-γ in the serum after lapse of 6, 12 and 24 hr from the administration was measured by sandwich ELISA (ENDOGEN). In addition, the content of IL-4 in the serum after lapse of 12 hr from the administration was measured by Cytometric bead array system (BD Biosciences), which is one kind of the ELISA method.
(§4) Using α-GalCer and compound 33, and according to a method similar to the above-mentioned Experimental Example 1, the blood (80 μL) was taken from the orbital plexus venosus after the lapse of 3, 6, 12, 24, 36, 48 and 60 hr from the administration, and the serum was prepared.
(§5) The content of IFN-γ in the serum after lapse of 3, 6, 12, 24, 36, 48 and 60 hr from the administration was measured by a method similar to the above-mentioned Experimental Example 1. In addition, the content of IL-4 in the serum after lapse of 3, 6 and 12 hr from the administration was measured by a method similar to the above-mentioned Experimental Example 1.

[4] = test system: IFN-γ; experiment: IFN-γ content in serum after intraperitoneal administration of synthetic glycolipid to mouse (sandwich ELISA); format: in vivo; conditions: 100 μg/kg body weight intraperitoneally, C57BL/6 mice, 6-24 hr (compounds 23, 24) or 3-60 hr (compound 33) after administration
Procedure: as §1, §2, §3, §4, §5

[5] = test system: NKT cells; conditions: series of synthetic analogs of α-galactosylceramide; cited from earlier work

CCCCCCCCCCCCCCCCCCCCCCCCCC(=O)N[C@@H](CO[C@H]1CC(CO)[C@H](O)C(O)C1O)[C@H](O)[C@H](O)CCCCCCCCCCCCCC (stereo partly shown)
IFN-γ production by NKT cells [1]: strongly induces | activity on human NKT cells in vitro [2]: strong activity

CCCCCCC#CCCCCCC[C@@H](O)[C@@H](O)[C@H](CO[C@H]1O[C@H](CO)[C@H](O)[C@H](O)[C@H]1O)OC(=O)CCCCCCCCCCCCCCCCCCCCCCCCC [Compound 23, (2S,3R,4R)-3,4-dihydroxy-2-hexacosanoyloxy-11-octadecyn-1-yl α-D-galactopyranoside]
production of IL-4 as compared to α-GalCer [3]: lower | production of IFN-γ as compared to α-GalCer [4]: equivalent or higher

CCCCCCCCCCCCCCCCCCCCCCCCCC(=O)O[C@@H](CO[C@H]1O[C@H](CO)[C@H](O)[C@H](O)[C@H]1O)[C@H](O)[C@H](O)CCCCCCCCCCCCCC [Compound 24, (2S,3R,4R)-3,4-dihydroxy-2-hexacosanoyloxyoctadecyl α-D-galactopyranoside]
production of IL-4 as compared to α-GalCer [3]: lower | production of IFN-γ as compared to α-GalCer [4]: equivalent or higher

CCCCCCCCCCCCCCCCCCCCCCCCCC(=O)O[C@@H](CO[C@H]1O[C@H](COC)[C@H](O)[C@H](O)[C@H]1O)[C@H](O)[C@H](O)CCCCCCCCCCCCCC [Compound 33, (2S,3R,4R)-3,4-dihydroxy-2-hexacosanoyloxyoctadecyl 6-O-methyl-α-D-galactopyranoside]
production of IL-4 as compared to α-GalCer [3]: lower | production of IFN-γ as compared to α-GalCer [4]: equivalent or higher

CCCCCCCCCCCCCCCCCCCCCCCCCC(=O)N[C@@H](CC[C@H]1OC(CO)[C@H](O)C(O)C1O)[C@H](O)[C@H](O)CCCCCCCCCCCCCC (stereo partly drawn) [α-C-GalCer]
activity on human NKT cells in vitro [2]: very weak activity

CCCCCCCCCCCCCCCCCCCCCCCCCC(=O)N[C@@H](CO[C@H]1OC(CO)[C@H](O)C(O)C1O)[C@H](O)[C@H](O)CCCCCCCCCCCCCC (stereo partly drawn) [α-GalCer]
immunostimulatory activity [5]: induces the strongest activity
